One may read the IC50 as the point on the concentration scale where inhibition reaches its midpoint.

What all share (assay type): cell-based
For assay [1], the system named is HEL cells (human acute myelocytic leukemia cell lines). In words: Cell-growth inhibition test: HEL cells. To be noted: read-out: IC50 (nM), Cell-Growth Inhibition Test: HEL Cells. The procedure:
(§1) Under the following conditions, an in vitro cell-growth inhibition test was performed with respect to HEL cells (human acute myelocytic leukemia cell lines), NCI-H1417 cells (human small-cell lung cancer cell lines), and NCI-H146 cells (human small-cell lung cancer cell lines).
(§2) The cells with the Example compound or with dimethylsulfoxide alone were cultured at 37° C. in a 5% carbon-dioxide-containing incubator for 5 days (HEL cells) or 10 days (NCI-H1417 cells and NCI-H146 cells). After culture, the plate was allowed to stand at room temperature for 30 minutes, and 100 μL of the supernatant was removed from each well to leave 100 μL of the cell culture solution. To each well containing the remaining 100 μL of the cell culture solution, the same amount of CellTiter-Glo 2.0 Assay (Promega, Cat #: G9242) was added. The microplate was shaken with a plate mixer for 1 minute and then allowed to stand in a dark place for 10 minutes. Thereafter, the luminescence intensity of viable cells in each well was measured using a microplate reader (PerkinElmer, EnSpire). […] Cell growth rate(%)=T/C×100 • T: The luminescence intensity in a well to which the test compound was added (count per second) • C: The luminescence intensity in a well to which dimethylsulfoxide alone was added (count per second)

Assay [2] relates to NCI-H1417 cells (human small-cell lung cancer cell lines). The assay can be described thus: Cell-growth inhibition test: NCI-H1417 cells. The settings on record: read-out: IC50 (nM), Cell-Growth Inhibition Test: NCI-H1417 Cells. Here is the method: as §1, §2
Assay [3] has as its system NCI-H146 cells (human small-cell lung cancer cell lines). In words: Cell-growth inhibition test: NCI-H146 cells. To be noted: NCI-H146 cells; read-out: IC50 (nM), Cell-Growth Inhibition Test: NCI-H146 Cells. Here is the method: as §1, §2

Each structure is given as a SMILES string. Counter-ions that a name gives are not always drawn. Like-named read-outs stand apart in the source and are kept apart here.

Consider `CC(C)(O)CC1OCc2cc(-c3ccc(C(=O)N4[C@@H]5CC[C@H]4[C@@H](N)C5)cc3-c3ccc(C#N)c(F)c3)c(F)cc21` (single isomer, unassigned) [Example 226], for which the IC50 is 2.56 nM in assay [1], 5.36 nM in assay [2] and 10.1 nM in assay [3].
The corresponding values for `Cc1c(F)c(-c2ccc(C(=O)N3[C@@H]4CC[C@H]3[C@@H](N)C4)cc2-c2ccc(C#N)c(F)c2)cc2nnn(CC(C)(C)O)c12` (single isomer, unassigned) [Example 228] are 0.68 nM, 0.3 nM and 0.51 nM.
The matching figures for `CNC(=O)c1cn(C)c2cc(F)c(-c3ccc(C(=O)N4[C@@H]5CC[C@H]4[C@@H](N)C5)cc3-c3ccc(C#N)c(F)c3)cc12` (single isomer, unassigned) [Example 237]: 28.5 nM, 6.63 nM and 5.14 nM.
The matching figures for `CN(C)C(=O)c1cn(C)c2cc(F)c(-c3ccc(C(=O)N4[C@@H]5CC[C@H]4[C@@H](N)C5)cc3-c3ccc(C#N)c(F)c3)cc12` (single isomer, unassigned) [Example 238]: 26.1 nM, 10.8 nM and 17.7 nM.
On to `CC(C)(O)Cn1nnc2cc(-c3ccc(C(=O)N4[C@@H]5CC[C@H]4[C@@H](N)C5)cc3-c3ccc(C#N)c(F)c3)c(F)c(C#N)c21` (single isomer, unassigned) [Example 247], for which the values for the IC50 in assay [1], in assay [2] and in assay [3] were 3.02 nM, 1.4 nM and 3.84 nM, respectively.
The matching figures for `N#Cc1ccc(-c2cc(C(=O)N3[C@@H]4CC[C@H]3[C@@H](N)C4)ccc2-c2cc3nnn(CC4(O)CCC4)c3c(F)c2F)cc1F` (single isomer, unassigned) [Example 254]: 0.2 nM, 0.18 nM and 0.36 nM.
In the case of `N#Cc1ccc(-c2cc(C(=O)N3[C@@H]4CC[C@H]3[C@@H](N)C4)ccc2-c2cc3nnn(CC4(O)CCC4)c3c(C(F)F)c2F)cc1F` (single isomer, unassigned) [Example 260], the results for the IC50 in assay [1], in assay [2] and in assay [3] were 0.13 nM, 0.13 nM and 0.48 nM, respectively.
In the case of `N#Cc1ccc(-c2cc(C(=O)N3[C@@H]4CC[C@H]3[C@@H](N)C4)ccc2-c2cc3nnn(CC4(O)CCC4)c3c(C#N)c2F)cc1F` (single isomer, unassigned) [Example 264], the IC50 is 0.84 nM in assay [1], 0.3 nM in assay [2] and 0.96 nM in assay [3].
The corresponding values for `Cc1ccc(-c2ccc(CN3[C@@H]4CC[C@H]3[C@@H](N)C4)cc2-c2ccc(C#N)c(F)c2)c(F)c1` (single isomer, unassigned) [Example 283] are 0.79 nM, 2.1 nM and 11.1 nM.
The matching figures for `CC(C)(O)Cn1nnc2cc(-c3ccc(CN4[C@@H]5CC[C@H]4[C@@H](N)C5)cc3-c3ccc(C#N)c(F)c3)c(F)c(F)c21.Cl.Cl` (single isomer, unassigned) [Example 285, dihydrochloride]: 0.046 nM, 0.09 nM and 0.49 nM.
The matching figures for `N#Cc1ccc(-c2cc(CN3[C@@H]4CC[C@H]3[C@@H](N)C4)ccc2-c2cc3nnn(CC4(O)CCC4)c3c(Cl)c2F)cc1F` (single isomer, unassigned) [Example 286, dihydrochloride]: 0.036 nM, 0.083 nM and 0.17 nM.
With `CCC(O)(CC)Cn1nnc2cc(-c3ccc(CN4[C@@H]5CC[C@H]4[C@@H](N)C5)cc3-c3ccc(C#N)c(F)c3)c(F)c(Cl)c21` (single isomer, unassigned) [Example 288, dihydrochloride], the figures for the IC50 in assay [1], in assay [2] and in assay [3] were 0.062 nM, 0.22 nM and 1.29 nM, respectively.
The matching figures for `CC(C)(O)Cn1ccc2cc(-c3ccc(CN4[C@@H]5CC[C@H]4[C@@H](N)C5)cc3-c3ccc(C#N)c(F)c3)c(F)cc21` (single isomer, unassigned) [Example 289, dihydrochloride]: 0.036 nM, 0.094 nM and 0.97 nM.
For the compound `Cn1ccc2cc(-c3ccc(C(=O)N4C5CCC4CC(N)C5)cc3-c3ccc(C#N)c(F)c3)ccc21` (stereo not drawn) [Example 18, 4-[5-[(3-exo)-3-amino-8-azabicyclo[3.2.1]octane-8-carbonyl]-2-(1-methylindol-5-yl)phenyl]-2-fluoro-benzonitrile], the IC50 in assay [1] (HEL cells) is 3.55 nM; in assay [2] (NCI-H1417 cells) it was 4.73 nM; in assay [3], 8.13 nM.
The corresponding values for `Cn1ccc2cc(-c3ccc(C(=O)N4C5CCC4CC(N)C5)cc3-c3ccc(C#N)c(F)c3)c(F)cc21` (stereo not drawn) [Example 123, 4-[5-[(3-endo)-3-amino-8-azabicyclo[3.2.1]octane-8-carbonyl]-2-(6-fluoro-1-methyl-indol-5-yl)phenyl]-2-fluoro-benzonitrile] are 1.99 nM, 3.57 nM and 1.39 nM.
As to `CC(C)(O)Cn1ccc2cc(-c3ccc(C(=O)N4C5CCC4CC(N)C5)cc3-c3ccc(C#N)c(F)c3)c(F)c(F)c21` (stereo not drawn) [Example 183, 5′-((3-endo)-3-amino-8-azabicyclo[3.2.1]octane-8-carbonyl)-2′-(6,7-difluoro-1-(2-hydroxy-2-methylpropyl)-1H-indol-5-yl)-3-fluoro-[1,1′-biphenyl]-4-carbonitrile], the IC50 in assay [1] amounted to 0.54 nM; in assay [2] it was 1.01 nM; in assay [3], 0.25 nM.
The matching figures for `CC(C)(O)CCn1ncc2cc(-c3ccc(C(=O)N4C5CCC4CC(N)C5)cc3-c3ccc(C#N)c(F)c3)c(F)cc21` (stereo not drawn) [Example 194, 5′-((3-endo)-3-amino-8-azabicyclo[3.2.1]octane-8-carbonyl)-3-fluoro-2′-(6-fluoro-1-(3-hydroxy-3-methylbutyl)-1H-indazol-5-yl)-[1,1′-biphenyl]-4-carbonitrile]: 15.5 nM, 5.63 nM and 11.3 nM.
The corresponding values for `CCC(O)(CC)Cn1ncc2cc(-c3ccc(C(=O)N4C5CCC4CC(N)C5)cc3-c3ccc(C#N)c(F)c3)c(F)cc21` (stereo not drawn) [Example 205, 5′-((3-endo)-3-amino-8-azabicyclo[3.2.1]octane-8-carbonyl)-2′-(1-(2-ethyl-2-hydroxybutyl)-6-fluoro-1H-indazol-5-yl)-3-fluoro-[1,1′-biphenyl]-4-carbonitrile] are 4.95 nM, 6.25 nM and 15.1 nM.
The matching figures for `CCC(O)(CC)Cn1nnc2cc(-c3ccc(C(=O)N4C5CCC4CC(N)C5)cc3-c3ccc(C#N)c(F)c3)c(F)c(Cl)c21` (stereo not drawn) [Example 220, 5′-((3-endo)-3-amino-8-azabicyclo[3.2.1]octane-8-carbonyl)-2′-(7-chloro-1-(2-ethyl-2-hydroxybutyl)-6-fluoro-1H-benzo[d][1,2,3]triazol-5-yl)-3-fluoro-[1,1′-biphenyl]-4-carbonitrile]: 1.09 nM, 1.03 nM and 1.81 nM.
Take `Cc1c(F)c(-c2ccc(C(=O)N3C4CCC3CC(N)C4)cc2-c2ccc(C#N)c(F)c2)cc2nnn(CC(C)(C)O)c12` (stereo not drawn) [Example 240, 5′-((3-endo)-3-amino-8-azabicyclo[3.2.1]octane-8-carbonyl)-3-fluoro-2′-(6-fluoro-1-(2-hydroxy-2-methylpropyl)-7-methyl-1H-benzo[d][1,2,3]triazol-5-yl)-[1,1′-biphenyl]-4-carbonitrile]: the IC50 turned out to be 4.2 nM in assay [1], 2.55 nM in assay [2] and 4.81 nM in assay [3].
Take `CC(C)(O)Cn1nnc2cc(-c3ccc(C(=O)N4C5CCC4CC(N)C5)cc3-c3ccc(C#N)c(F)c3)c(F)c(C(F)F)c21` (stereo not drawn) [Example 250, 5′-((3-endo)-3-amino-8-azabicyclo[3.2.1]octane-8-carbonyl)-2′-(7-(difluoromethyl)-6-fluoro-1-(2-hydroxy-2-methylpropyl)-1H-benzo[d][1,2,3]triazol-5-yl)-3-fluoro-[1,1′-biphenyl]-4-carbonitrile]: the values for the concentration for half-maximal inhibition (IC50) in assay [1], in assay [2] and in assay [3] were 2.36 nM, 1.2 nM and 9.3 nM, respectively.
The matching figures for `N#Cc1ccc(-c2cc(C(=O)N3C4CCC3CC(N)C4)ccc2-c2cc3nnn(CC4(O)CCC4)c3c(C(F)F)c2F)cc1F` (stereo not drawn) [Example 262, 5′-((3-endo)-3-amino-8-azabicyclo[3.2.1]octane-8-carbonyl)-2′-(7-(difluoromethyl)-6-fluoro-1-((1-hydroxycyclobutyl)methyl)-1H-benzo[d][1,2,3]triazol-5-yl)-3-fluoro-[1,1′-biphenyl]-4-carbonitrile]: 0.93 nM, 0.7 nM and 3.1 nM.

These data come from patent publication US12435128B2, “Method for predicting therapeutic effect of LSD1 inhibitor based on expression of INSM1” (TAIHO PHARMACEUTICAL CO., LTD., priority 2017, dated 2025).
